The target in the assay is T1, α-glucosidase (Saccharomyces cerevisiae, UniProt P53341).
T1 construct: purchased Sigma-Aldrich G0660
The assay is described as follows: biochemical. The following applies: 37 °C, 30 minutes, pH 6.8. It is filed as biochemical. On the procedure: All analytically graded reagents were purchased from either Sigma-Aldrich or Merck & Co. and used without further purification. Solvents for column chromatography were distilled before use. Melting points (in °C) were determined on a Thermo Mel-temp 3.0 (USA). Infrared (IR) spectra were recorded on an IMPACT 410 Nicolet Spectrometer. ESI-MS spectra were obtained from an 1100 Agilent LC/MS ion Trap. 1D (^1H, ^13C and DEPT) and 2D (HSQC, HMBC, COSY, NOESY) NMR spectra were recorded on a Bruker Avance 500 MHz using tetramethylsilane (TMS) as the internal standard for ^1H and solvent signal for ^13C NMR. Thin-layer chromatography (TLC) was carried out on a pre-coated silica gel 60 F254 (Merck & Co.), visualised under ultraviolet (UV) radiation at λmax 254 nm, and stained by a solution of 1% (w/w) vanillin in sulfuric acid. Column chromatography (CC) was performed on silica gel 300–400 mesh (Merck & Co.). Enzyme α-glucosidase was purchased from Sigma-Aldrich under the name code G0660, detected by a Biotek Epoch 2 microplate readers (USA).
Each assay was performed on 96 well-plates (200 μL per well). The test samples were dissolved in DMSO 10% and further diluted to the concentrations: 1024, 256, 64, 16, 4, 1 μg.mL^−1. Each concentration of the test sample (10 μL) was incubated at 37 °C with phosphate buffer 100 mM (pH 6.8, 40 μL), α-glucosidase 0.4 U mL^−1 (25 μL), p-nitrophenyl α-D-glucopyranoside 2.5 mM (25 μL). After 30 minutes, the reaction was terminated by adding 100 μL of 0.1 M Na2CO3 solution. The enzyme activities were determined by measuring the absorbance at λmax 410 nm. […] Percentage of inhibition was calculated as followed:[31] [drawing 1]

Where [1] appears, read: IC50 (α-glucosidase inhibitory activity).

Read-outs that look alike come from different tables or passages of the source.

T1 sequence (P53341 whole entry): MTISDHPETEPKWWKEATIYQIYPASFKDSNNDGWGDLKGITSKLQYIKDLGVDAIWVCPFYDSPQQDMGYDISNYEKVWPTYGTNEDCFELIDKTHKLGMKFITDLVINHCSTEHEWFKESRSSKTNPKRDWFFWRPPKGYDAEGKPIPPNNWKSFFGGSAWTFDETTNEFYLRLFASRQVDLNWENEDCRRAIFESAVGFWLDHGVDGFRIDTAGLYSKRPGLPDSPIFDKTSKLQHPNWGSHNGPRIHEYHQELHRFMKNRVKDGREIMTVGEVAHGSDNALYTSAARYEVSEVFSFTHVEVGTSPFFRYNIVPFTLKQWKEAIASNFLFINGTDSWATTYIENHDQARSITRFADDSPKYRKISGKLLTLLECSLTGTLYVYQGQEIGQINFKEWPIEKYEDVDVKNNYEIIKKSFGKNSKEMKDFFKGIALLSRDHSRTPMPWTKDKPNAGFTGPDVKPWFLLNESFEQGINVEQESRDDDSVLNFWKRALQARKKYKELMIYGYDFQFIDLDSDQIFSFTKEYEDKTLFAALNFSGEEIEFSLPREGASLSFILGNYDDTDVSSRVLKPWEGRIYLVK

One may read the IC50 as the concentration that inhibits the measured activity by half. As for `COc1ccc(C=CC(=O)OC2C3C=COC(OC4OC(CO)C(O)C(O)C4O)C3C3(CO)OC23)cc1` (stereo not shown) [Compound 1, 6-O-[(E)-4-methoxycinnamoyl]catalpol], under setting [1], the IC50 amounted to 24.9 µM.
Same read-out and setting: in the case of `COc1ccc(C=CC(=O)OC2C3C=COC(OC4OC(CO)C(O)C(O)C4O)C3C3(CO)OC23)cc1OC` (stereo not shown) [Compound 2, 6-O-[(E)-3,4-dimethoxycinnamoyl]catalpol] it was 7.24 µM.
Take `COc1ccc(CCC(=O)OC2C3C=COC(OC4OC(CO)C(O)C(O)C4O)C3C3(CO)OC23)cc1` (stereo not shown) [Compound 3, 6-O-(4-methoxyphenylpropanoyl)catalpol]: the “IC50 (α-glucosidase inhibitory activity)” value was “inactive”. The IC50 under setting [1] is more than 390 µM.
As for `COc1ccc(CCC(=O)OC2C3C=COC(OC4OC(CO)C(O)C(O)C4O)C3C3(CO)OC23)cc1OC` (stereo not shown) [Compound 4, 6-O-(3,4-dimethoxyphenylpropanoyl)catalpol], the “IC50 (α-glucosidase inhibitory activity)” value was “inactive”. The same compound had an IC50 under setting [1] of more than 390 µM.
Regarding `COc1ccc(CCC(=O)OC2C3C=COC(OC4OC(COC(C)=O)C(OC(C)=O)C(OC(C)=O)C4OC(C)=O)C3C3(COC(C)=O)OC23)cc1OC` (stereo not shown) [Compound 5, 6-O-(3,4-dimethoxyphenylpropanoyl)catalpolpentaacetate], the “IC50 (α-glucosidase inhibitory activity)” value is “inactive”. Under setting [1], the IC50 was more than 390 µM.
Under setting [1], `COc1ccc(C=CC(=O)OC2C3C=COC(OC4OC(COC(c5ccccc5)(c5ccccc5)c5ccccc5)C(O)C(O)C4O)C3C3(COC(c4ccccc4)(c4ccccc4)c4ccccc4)OC23)cc1OC` (stereo not shown) [Compound 6, 6-O-[(E)-3,4-dimethoxy]catalpol-10,6′-O-ditriphenylmethyl] gave an IC50 of 225 µM.
Regarding `COc1ccc(C=CC(=O)OC2C3C=COC(OC4OC(COC(C)=O)C(OC(C)=O)C(OC(C)=O)C4OC(C)=O)C3C3(COC(C)=O)OC23)cc1` (stereo not shown) [Compound 7, minecoside pentaacetate], the IC50 under setting [1] is 168 µM.
Take `COc1ccc(C=CC(=O)OC2C3C=COC(OC4OC(COC(C)=O)C(OC(C)=O)C(OC(C)=O)C4OC(C)=O)C3C3(COC(C)=O)OC23)cc1OC` (stereo not shown) [Compound 8, 6-O-[(E)-3,4-dimethoxycinnamoyl]catalpolpentaacetate]: the “IC50 (α-glucosidase inhibitory activity)” value was “inactive”. Under setting [1], this compound came in with an IC50 of more than 390 µM.
In the case of `COc1ccc(C=CC(=O)OC2C3C=COC(OC4OC5COC(C)(C)OC5C(O)C4O)C3C3(CO)OC23)cc1` (stereo not shown) [Compound 9, 6-O-[(E)-4-methoxycinnamoyl]catalpol-4′,6′-acetonide], the IC50 under setting [1] was more than 390 µM.
The same measure, in the same setting: the same measure for `CC(=CCO)CCC=C(C)C(=O)OC1C2C=COC(OC3OC(CO)C(O)C(O)C3O)C2C2(CO)OC12` (stereo not shown) [Compound 10, nemoroside]: 0.05 µM.
As to `COc1ccc(C=CC(=O)OC2C3C=COC(OC4OC(COC(C)=O)C(OC(C)=O)C(OC(C)=O)C4OC(C)=O)C3C3(COC(C)=O)OC23)cc1OC(C)=O` (stereo not shown) [Compound 11, 6-O-[(E)-4-methoxycinnamoyl]catalpolhexaacetate], the “IC50 (α-glucosidase inhibitory activity)” value is “inactive”. Under setting [1], the IC50 was more than 390 µM.
`CC(=O)OCC1OC(OC2OC=CC3C(OC(=O)C=Cc4ccc(OC(C)=O)cc4)C4OC4(COC(C)=O)C23)C(OC(C)=O)C(OC(C)=O)C1OC(C)=O` (stereo not shown) [Compound 12, specioside hexaacetate] gave an IC50 under setting [1] of 71.6 µM.
Still for that read-out and setting: the same measure for `COc1ccc(/C=C/C(=O)O[C@H]2[C@@H]3C=CO[C@@H](O[C@@H]4O[C@H](CO)[C@@H](O)[C@H](O)[C@H]4O)[C@@H]3[C@@]3(CO)O[C@@H]23)cc1O` [Compound 13, minecoside]: 20.8 µM.
As to `O=C(/C=C/c1ccc(O)cc1)O[C@H]1[C@@H]2C=CO[C@@H](O[C@@H]3O[C@H](CO)[C@@H](O)[C@H](O)[C@H]3O)[C@@H]2[C@@]2(CO)O[C@@H]12` [Compound 14, specioside], the IC50 (read-out: IC50 (α-glucosidase inhibitory activity)) worked out at 8.65 µM.

For the origin of these results see publication PMC8696980, “Isolation, semi-synthesis, docking-based prediction, and bioassay-based activity of Dolichandrone spathacea iridoids: new catalpol derivatives as glucosidase inhibitors” (RSC Advances, 2021).
